We go through 26 compounds from US10196390B2, “TYK2 inhibitors and uses thereof” (Nimbus Lakshmi, Inc., priority 2014, dated 2019).

Chain of JAK2 (O60674 whole entry): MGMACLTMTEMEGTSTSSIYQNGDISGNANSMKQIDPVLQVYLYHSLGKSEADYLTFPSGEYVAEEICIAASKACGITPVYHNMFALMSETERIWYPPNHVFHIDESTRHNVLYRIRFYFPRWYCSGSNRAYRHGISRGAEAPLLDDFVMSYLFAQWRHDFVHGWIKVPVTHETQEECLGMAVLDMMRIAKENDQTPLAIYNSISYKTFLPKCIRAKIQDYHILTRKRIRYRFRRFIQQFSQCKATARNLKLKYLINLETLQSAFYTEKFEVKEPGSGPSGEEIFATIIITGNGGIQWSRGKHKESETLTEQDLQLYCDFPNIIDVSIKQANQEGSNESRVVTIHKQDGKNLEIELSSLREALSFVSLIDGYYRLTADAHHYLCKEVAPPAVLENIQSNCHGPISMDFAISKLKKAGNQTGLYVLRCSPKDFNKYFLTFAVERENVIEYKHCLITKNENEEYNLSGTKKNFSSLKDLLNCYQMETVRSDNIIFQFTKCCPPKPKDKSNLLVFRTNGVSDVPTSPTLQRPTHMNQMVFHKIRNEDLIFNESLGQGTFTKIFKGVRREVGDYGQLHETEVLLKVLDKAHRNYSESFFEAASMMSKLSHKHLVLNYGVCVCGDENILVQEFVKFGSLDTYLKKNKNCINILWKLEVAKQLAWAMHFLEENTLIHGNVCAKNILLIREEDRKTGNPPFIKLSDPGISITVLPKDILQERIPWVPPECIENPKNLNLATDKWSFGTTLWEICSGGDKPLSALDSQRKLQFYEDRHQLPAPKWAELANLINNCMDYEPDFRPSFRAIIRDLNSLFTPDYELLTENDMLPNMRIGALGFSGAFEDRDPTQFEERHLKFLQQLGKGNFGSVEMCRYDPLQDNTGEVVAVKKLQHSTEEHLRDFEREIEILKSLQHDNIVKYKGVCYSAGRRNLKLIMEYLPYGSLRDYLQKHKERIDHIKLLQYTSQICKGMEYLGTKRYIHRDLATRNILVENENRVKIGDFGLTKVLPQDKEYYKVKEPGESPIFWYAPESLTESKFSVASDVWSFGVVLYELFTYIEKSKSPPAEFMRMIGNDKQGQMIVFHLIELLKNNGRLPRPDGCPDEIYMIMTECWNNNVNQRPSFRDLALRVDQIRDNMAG

The test concerns the target JAK2 (Homo sapiens (Human), UniProt O60674). Nature of the test: JAK2 activity inhibition assay (radioactive kinase assay / Caliper assay). The test is classed as biochemical. The note with it: read-out: JAK2 Ki. As to the method:
The caliper machine employs an off chip mobility shift assay to detect phosphorylated peptide substrates from kinase assays, using microfluidics technology. […] Compounds are serially diluted in DMSO then further diluted in assay buffer (25 mM HEPES, pH 7.5, 0.01% Brij-35, 0.01% Triton, 0.5 mM EGTA). 5 ul of diluted compound was added into wells first, then 10 ul of enzyme mix was added into wells, followed by 10 uL of substrate mix (peptide and ATP in 10 mM MgCl2) to start reaction. Reaction was incubated at 28° C. for 25 min and then added 25 ul stop buffer (100 mM HEPES, 0.015% Brij-35, 50 mM EDTA), followed by reading with Caliper.
A word on the Ki: it is a dissociation constant, usually derived from enzyme kinetics or from competition with a known ligand. Turning to `O=C(Cc1ccc(Nc2nc(-c3c(F)cccc3F)nc3c2C(=O)NC3)cc1)NC1CNC1` [Compound I-12, N-(azetidin-3-yl)-2-(4-((2-(2,6-difluorophenyl)-5-oxo-6,7-dihydro-5H-pyrrolo[3,4-d]pyrimidin-4-yl)amino)phenyl)acetamide], the Ki is 100 to 1000 nM.
For `COCCNC(=O)c1ccc(Nc2cc(-c3c(F)cccc3F)nc3c2C(=O)NC3)nc1` [Compound I-141, 6-((2-(2,6-difluorophenyl)-5-oxo-6,7-dihydro-5H-pyrrolo[3,4-b]pyridin-4-yl)amino)-N-(2-methoxyethyl)nicotinamide] the value was 10 to 100 nM; for `CCNC(=O)c1ccc(Nc2cc(-c3c(F)cccc3Cl)nc3c2C(=O)NC3)nc1` [Compound I-146, 6-((2-(2-chloro-6-fluorophenyl)-5-oxo-6,7-dihydro-5H-pyrrolo[3,4-b]pyridin-4-yl)amino)-N-ethylnicotinamide], 10 to 100 nM; for `CCC1(c2ccc(Nc3nc(-c4c(F)cccc4F)nc4c3C(=O)NC4)cc2)CCNC1=O` (centres unmarked) [Compound I-175, 2-(2,6-difluorophenyl)-4-((4-(3-ethyl-2-oxopyrrolidin-3-yl)phenyl)amino)-6,7-dihydro-5H-pyrrolo[3,4-d]pyrimidin-5-one], 10 to 100 nM.
For `CC[C@]1(c2ccc(Nc3nc(-c4c(F)cccc4F)nc4c3C(=O)NC4)cc2)CCNC1=O` [Compound I-177, (R)-2-(2,6-difluorophenyl)-4-((4-(3-ethyl-2-oxopyrrolidin-3-yl)phenyl)amino)-6,7-dihydro-5H-pyrrolo[3,4-d]pyrimidin-5-one] the value was 10 to 100 nM.
As for `COC(=O)C(C)c1ccc(Nc2nc(-c3c(F)cccc3F)nc3c2C(=O)NC3)cc1` (centres unmarked) [Compound I-188, methyl 2-(4-((2-(2,6-difluorophenyl)-5-oxo-6,7-dihydro-5H-pyrrolo[3,4-d]pyrimidin-4-yl)amino)phenyl)propanoate], the inhibition constant Ki fell in the range of 10 to 100 nM.
For `C[C@@H](C(=O)O)c1ccc(Nc2nc(-c3c(F)cccc3F)nc3c2C(=O)NC3)cc1` [Compound I-190, (R)-2-(4-((2-(2,6-difluorophenyl)-5-oxo-6,7-dihydro-5H-pyrrolo-[3,4-d]pyrimidin-4-yl)amino)phenyl)propanoic Acid] the value was 100 to 1000 nM; for `C[C@H](C(=O)O)c1ccc(Nc2nc(-c3c(F)cccc3F)nc3c2C(=O)NC3)cc1` [Compound I-191, (S)-2-(4-((2-(2,6-difluorophenyl)-5-oxo-6,7-dihydro-5H-pyrrolo-[3,4-d]pyrimidin-4-yl)amino)phenyl)propanoic Acid], 100 to 1000 nM.
For `CN1CCN(C)C(C)(c2ccc(Nc3nc(-c4c(F)cccc4F)nc4c3C(=O)NC4)cc2)C1=O` (centres unmarked) [Compound I-209, 2-(2,6-difluorophenyl)-4-((4-(1,2,4-trimethyl-3-oxopiperazin-2-yl)phenyl)amino)-6,7-dihydro-5H-pyrrolo[3,4-d]pyrimidin-5-one] the value was 10 to 100 nM; for `CN1CCN(C)[C@](C)(c2ccc(Nc3nc(-c4c(F)cccc4F)nc4c3C(=O)NC4)cc2)C1=O` [Compound I-210, (R)-2-(2,6-difluorophenyl)-4-((4-(1,2,4-trimethyl-3-oxopiperazin-2-yl)phenyl)amino)-6,7-dihydro-5H-pyrrolo[3,4-d]pyrimidin-5-one], 10 to 100 nM.
For `O=C1NCc2nc(-c3c(F)cccc3F)cc(Nc3ccc(C(=O)N4CCOCC4)cn3)c21` [Compound I-212, 2-(2,6-difluorophenyl)-4-((5-(morpholine-4-carbonyl)pyridin-2-yl)amino)-6,7-dihydro-5H-pyrrolo[3,4-b]pyridin-5-one] the value was 10 to 100 nM; for `O=C1NCc2nc(-c3c(F)cccc3F)cc(Nc3ccc(F)cc3)c21` [Compound I-235, 2-(2,6-difluorophenyl)-4-((4-fluorophenyl)amino)-6,7-dihydro-5H-pyrrolo[3,4-b]pyridin-5-one], 100 to 1000 nM.
On to `COc1ccc(Nc2cc(-c3c(F)cccc3F)nc3c2C(=O)NC3C)nc1` (centres unmarked) [Compound I-239, 2-(2,6-difluorophenyl)-4-((5-methoxypyridin-2-yl)amino)-7-methyl-6,7-dihydro-5H-pyrrolo[3,4-b]pyridin-5-one], for which the Ki lay within 100 to 1000 nM.
For `CC1COCCN1c1ccc(Nc2cc(-c3c(F)cccc3F)nc3c2C(=O)NC3)nc1` (centres unmarked) [Compound I-244, 2-(2,6-difluorophenyl)-4-((5-(3-methylmorpholino)pyridin-2-yl)amino)-6,7-dihydro-5H-pyrrolo[3,4-b]pyridin-5-one] the value was 10 to 100 nM; for `O=C1NCc2nc(-c3c(F)cccc3F)cc(Nc3ccc(C4=CCOCC4)cn3)c21` [Compound I-249, 2-(2,6-difluorophenyl)-4-((5-(3,6-dihydro-2H-pyran-4-yl)pyridin-2-yl)amino)-6,7-dihydro-5H-pyrrolo[3,4-b]pyridin-5-one], 10 to 100 nM; for `O=C1NCc2nc(-c3c(F)cccc3F)cc(Nc3ccc(C4(O)CCOCC4)cn3)c21` [Compound I-251, 2-(2,6-difluorophenyl)-4-((5-(4-hydroxytetrahydro-2H-pyran-4-yl)pyridin-2-yl)amino)-6,7-dihydro-5H-pyrrolo[3,4-b]pyridin-5-one], 10 to 100 nM.
Turning to `CC1(C)CCN(c2ccc(Nc3cc(-c4c(F)cccc4F)nc4c3C(=O)NC4)nc2)CC1` [Compound I-252, 2-(2,6-difluorophenyl)-4-((5-(4,4-dimethylpiperidin-1-yl)pyridin-2-yl)amino)-6,7-dihydro-5H-pyrrolo[3,4-b]pyridin-5-one], the Ki lay within 100 to 1000 nM.
For `O=C1NCc2nc(-c3c(F)cccc3F)c(F)c(Nc3ccc(N4CCOCC4)cn3)c21` [Compound I-254, 2-(2,6-difluorophenyl)-3-fluoro-4-((5-morpholinopyridin-2-yl)amino)-6,7-dihydro-5H-pyrrolo[3,4-b]pyridin-5-one] the value was 10 to 100 nM.
Next, `CC1(c2ccc(Nc3nc(-c4c(F)cccc4F)nc4c3C(=O)NC4)cc2)COC1` [Compound I-255, 2-(2,6-difluorophenyl)-4-((4-(3-methyloxetan-3-yl)phenyl)-amino)-6,7-dihydro-5H-pyrrolo[3,4-d]pyrimidin-5-one]: 10 to 100 nM.
For `C[C@@H]1CCC[C@H](C)N1c1ccc(Nc2cc(-c3c(F)cccc3F)nc3c2C(=O)NC3)nc1` [Compound I-261, 2-(2,6-difluorophenyl)-4-((5-((2R,6S)-2,6-dimethylpiperidin-1-yl)pyridin-2-yl)amino)-6,7-dihydro-5H-pyrrolo[3,4-b]pyridin-5-one] the value was 10 to 100 nM.
On to `CC1(C)CN(c2ccc(Nc3cc(-c4c(F)cccc4F)nc4c3C(=O)NC4)nc2)CC[C@@H]1O` [Compound I-267, (S)-2-(2,6-difluorophenyl)-4-((5-(4-hydroxy-3,3-dimethylpiperidin-1-yl)pyridin-2-yl)amino)-6,7-dihydro-5H-pyrrolo[3,4-b]pyridin-5-one], for which the inhibition constant (Ki) was 10 to 100 nM.
Next, `O=C1NCc2nc(-c3c(F)cccc3F)cc(Nc3ccc(N4CCCC(O)C4)cn3)c21` (centres unmarked) [Compound I-269, 2-(2,6-difluorophenyl)-4-((5-(3-hydroxypiperidin-1-yl)pyridin-2-yl)amino)-6,7-dihydro-5H-pyrrolo[3,4-b]pyridin-5-one]: 10 to 100 nM; `CC1(O)CCN(C(=O)c2ccc(Nc3cc(-c4c(F)cccc4F)nc4c3C(=O)NC4)cc2)CC1` [Compound I-275, 2-(2,6-difluorophenyl)-4-((4-(4-hydroxy-4-methylpiperidine-1-carbonyl)phenyl)amino)-6,7-dihydro-5H-pyrrolo[3,4-b]pyridin-5-one]: 10 to 100 nM.
Next, `O=C1NCc2nc(-c3c(F)cccc3F)cc(Nc3ccc(N4C5COCC4C5)cn3)c21` [Compound I-279, 4-((5-(3-oxa-6-azabicyclo[3.1.1]heptan-6-yl)pyridin-2-yl)amino)-2-(2,6-difluorophenyl)-6,7-dihydro-5H-pyrrolo[3,4-b]pyridin-5-one]: 10 to 100 nM; `CC1(C)CCCC(=O)N1c1ccc(Nc2cc(-c3c(F)cccc3F)nc3c2C(=O)NC3)nc1` [Compound I-284, 2-(2,6-difluorophenyl)-4-((5-(2,2-dimethyl-6-oxopiperidin-1-yl)pyridin-2-yl)amino)-6,7-dihydro-5H-pyrrolo[3,4-b]pyridin-5-one]: 10 to 100 nM; `CCNC(=O)c1cnc(Nc2cc(-c3c(F)cccc3F)nc3c2C(=O)NC3)cc1F` [Compound I-286, 6-((2-(2,6-difluorophenyl)-5-oxo-6,7-dihydro-5H-pyrrolo[3,4-b]pyridin-4-yl)amino)-N-ethyl-4-fluoronicotinamide]: 100 to 1000 nM.
